Results as given in US10299478B2, “Pyrazolyltriazolylpyridines as pesticides” (BAYER ANIMAL HEALTH GMBH, priority 2014, dated 2019).

Columns and labels:
Type in all cases: in vivo
[1] = test system: adult dog ticks (Rhipicephalus sanguineus); experiment: Rhipicephalus sanguineus in vitro contact test with adult brown dog ticks; settings: coated test tube, after 48 h
Experimental: Rhipicephalus sanguineus-In Vitro Contact Tests with Adult Brown Dog Ticks
(§1) For the coating of the test tubes, 9 mg of active compound are first dissolved in 1 ml of acetone p.a. and then diluted to the desired concentration with acetone p.a. 250 μl of the solution are distributed homogeneously on the inner walls and the base of a 25 ml test tube by turning and rocking on an orbital shaker (rocking rotation at 30 rpm for 2 h). With 900 ppm active compound solution and internal surface 44.7 cm^2, given homogeneous distribution, an area-based dose of 5 μg/cm^2 is achieved.
After the solvent has evaporated off, the tubes are populated with 5-10 adult dog ticks (Rhipicephalus sanguineus), sealed with a perforated plastic lid and incubated in a horizontal position in the dark at room temperature and ambient humidity. After 48 h, efficacy is determined. To this end, the ticks are knocked to the floor of the tube and incubated on a hotplate at 45-50° C. for not more than 5 min. Ticks which remain motionless on the floor or move in such an uncoordinated manner that they are unable to deliberately avoid the heat by climbing upwards are considered to be dead or moribund.
An efficacy of 100% means that all the ticks were dead or moribund. 0% efficacy means that none of the ticks had been harmed.

[2] = test system: engorged adult female cattle ticks (Boophilus microplus); experiment: Boophilus microplus injection test; settings: application rate 20 μg/animal; injection into the abdomen; assessed after 7 days
Experimental: Boophilus microplus-Injection Test
(§2) • Solvent: dimethyl sulphoxide
To produce an appropriate active ingredient formulation, 10 mg of active ingredient are mixed with 0.5 ml of solvent and the concentrate is diluted with solvent to the desired concentration.
1 μl of the active ingredient solution is injected into the abdomen of 5 engorged adult female cattle ticks (Boophilus microplus). The animals are transferred into dishes and kept in a climate-controlled room.
(§3) Efficacy is assessed after 7 days by laying of fertile eggs. Eggs which are not visibly fertile are stored in a climate-controlled cabinet until the larvae hatch after about 42 days. An efficacy of 100% means that none of the ticks has laid any fertile eggs; 0% means that all the eggs are fertile.

[3] = test system: larvae of the mustard beetle (Phaedon cochleariae); experiment: Phaedon cochleariae spray test; settings: application rate 100 g/ha; Chinese cabbage leaf discs sprayed; after 7 days
Experimental: Phaedon cochleariae-Spray Test
(§4) • Solvent: 78.0 parts by weight of acetone • 1.5 parts by weight of dimethylformamide • Emulsifier: alkylaryl polyglycol ether
(§5) To produce an appropriate active ingredient formulation, 1 part by weight of active ingredient is dissolved using the specified parts by weight of solvent and made up with water containing an emulsifier concentration of 1000 ppm until the desired concentration is attained. To produce further test concentrations, the preparation is diluted with emulsifier-containing water.
Discs of Chinese cabbage leaves (Brassica pekinensis) are sprayed with an active ingredient formulation of the desired concentration and, after drying, populated with larvae of the mustard beetle (Phaedon cochleariae).
After 7 days, efficacy in % is determined. 100% means that all the beetle larvae have been killed; 0% means that no beetle larvae have been killed.

[4] = test system: cattle ticks (Boophilus microplus) Parkhurst strain, SP-resistant; experiment: Boophilus microplus dip test; settings: application rate 100 ppm, assessed after 7 days
Experimental: Boophilus microplus-Dip Test
• Test animals: cattle ticks (Boophilus microplus) Parkhurst strain, SP-resistant • Solvent: dimethyl sulphoxide
10 mg of active ingredient are dissolved in 0.5 ml of dimethyl sulphoxide. For the purpose of producing a suitable formulation, the active compound solution is diluted with water to the concentration desired in each case.
This active ingredient formulation is pipetted into tubes. 8-10 engorged adult female cattle ticks (Boophilus microplus) are transferred into a further tube with holes. The tube is immersed into the active compound preparation, and all the ticks are completely wetted. After the liquid has run out, the ticks are transferred on filter discs into plastic dishes and stored in a climate-controlled room.
as §3

[5] = test system: unfed adult cat fleas (Ctenocephalides felis); experiment: Ctenocephalides felis oral test; settings: application rate 100 ppm, in citrated cattle blood, after 2 days
Experimental: Ctenocephalides felis-Oral Test
as §2
To produce a suitable preparation of active compound, 10 mg of active compound are mixed with 0.5 ml of dimethyl sulphoxide. Dilution with citrated cattle blood gives the desired concentration.
About 20 unfed adult cat fleas (Ctenocephalides felis) are placed into a chamber which is closed at the top and bottom with gauze. A metal cylinder whose bottom end is closed with parafilm is placed onto the chamber. The cylinder contains the blood/active compound preparation, which can be imbibed by the fleas through the parafilm membrane.
After 2 days, the kill in % is determined. 100% means that all of the fleas have been killed; 0% means that none of the fleas have been killed.

[6] = test system: Tick nymphs (Amblyomma hebraeum); experiment: Amblyomma hebaraeum test; settings: application rate 100 ppm; nymphs immersed for one minute; after 42 days
Experimental: as §2
(§6) To produce an appropriate active ingredient formulation, 10 mg of active ingredient are mixed with 0.5 ml of dimethyl sulphoxide, and the concentrate is diluted with water to the desired concentration.
Tick nymphs (Amblyomma hebraeum) are placed into perforated plastic beakers and immersed in the desired concentration for one minute. The ticks are transferred on filter paper into a Petri dish and stored in a climate-controlled cabinet.
After 42 days, the kill in % is determined. 100% means that all of the ticks have been killed; 0% means that none of the ticks have been killed.

[7] = test system: greenhouse red spider mite (Tetranychus urticae); experiment: Tetranychus urticae spray test, OP-resistant; settings: application rate 100 g/ha; bean leaf discs sprayed; after 6 days
Experimental: Tetranychus urticae-Spray Test, OP-Resistant
as §4, §5
Discs of bean leaves (Phaseolus vulgaris) infested by all stages of the greenhouse red spider mite (Tetranychus urticae) are sprayed with an active ingredient formulation of the desired concentration.
After 6 days, efficacy in % is determined. 100% means that all the spider mites have been killed; 0% means that no spider mites have been killed.

[8] = test system: adult houseflies (Musca domestica); experiment: Musca domestica test; settings: application rate 100 ppm; sponge with sugar solution; after 2 days
Experimental: as §2, §6
Vessels containing a sponge treated with sugar solution and the active ingredient formulation of the desired concentration are populated with 10 adult houseflies (Musca domestica).
After 2 days, the kill in % is determined. 100% means that all of the flies have been killed; 0% means that none of the flies have been killed.

[9] = test system: green peach aphid (Myzus persicae); experiment: Myzus persicae spray test; settings: application rate 100 g/ha; Chinese cabbage leaf discs sprayed; after 6 days
Experimental: Myzus persicae-Spray Test
• Solvent: 78 parts by weight of acetone • 1.5 parts by weight of dimethylformamide • Emulsifier: alkylaryl polyglycol ether
as §5
Discs of Chinese cabbage leaves (Brassica pekinensis) infested by all stages of the green peach aphid (Myzus persicae) are sprayed with an active compound preparation of the desired concentration.
After 6 days, efficacy in % is determined. 100% means that all the aphids have been killed; 0% means that no aphids have been killed.

[10] = test system: L1 larvae of the Australian sheep blowfly (Lucilia cuprina); experiment: Lucilia cuprina test; settings: application rate 100 ppm; minced horsemeat; after 2 days
Experimental: as §2, §6
About 20 L1 larvae of the Australian sheep blowfly (Lucilia cuprina) are transferred into a test vessel containing minced horsemeat and the active ingredient preparation of the desired concentration.
After 2 days, the kill in % is determined. 100% means that all the larvae have been killed; 0% means that no larvae have been killed.

[11] = test system: caterpillars of the armyworm (Spodoptera frugiperda); experiment: Spodoptera frugiperda spray test; settings: application rate 100 g/ha; maize leaf discs sprayed; after 7 days
Experimental: Spodoptera frugiperda-Spray Test
as §4, §5
Leaf discs of maize (Zea mays) are sprayed with an active ingredient formulation of the desired concentration and, after drying, populated with caterpillars of the armyworm (Spodoptera frugiperda).
After 7 days, efficacy in % is determined. 100% means that all the caterpillars have been killed; 0% means that no caterpillars have been killed.

[12] = test system: adult cat fleas (Ctenocephalides felis); experiment: Ctenocephalides felis in vitro contact test with adult cat fleas; settings: application rate 500 g/ha; coated test tube; after 48 h
Experimental: Ctenocephalides felis—In Vitro Contact Tests with Adult Cat Fleas
as §1, with “[…]” for “μg/cm^2”
After the solvent has evaporated off, the tubes are populated with 5-10 adult cat fleas (Ctenocephalides felis), sealed with a perforated plastic lid and incubated in a horizontal position at room temperature and ambient humidity. After 48 h, efficacy is determined. To this end, the test tubes are stood upright and the fleas are knocked to the base of the tube. Fleas which remain motionless at the base or move in an uncoordinated manner are considered to be dead or moribund.
100% efficacy means that all the fleas were dead or moribund. 0% efficacy means that no fleas were harmed.

[13] = test system: southern root-knot nematode (Meloidogyne incognita); experiment: Meloidogyne incognita test; settings: application rate 20 ppm; lettuce in sand; after 14 days
Experimental: Meloidogyne incognita Test
• Solvent: 125.0 parts by weight of acetone
To produce an appropriate active ingredient formulation, 1 part by weight of active ingredient is mixed with the stated amount of solvent and the concentrate is diluted with water to the desired concentration.
Vessels are filled with sand, active ingredient solution, an egg/larvae suspension of the southern root-knot nematode (Meloidogyne incognita) and lettuce seeds. The lettuce seeds germinate and the plants develop. The galls develop on the roots.
After 14 days, the nematicidal efficacy in % is determined by the formation of galls. 100% means that no galls were found; 0% means that the number of galls on the treated plants corresponds to the untreated control.

Cn1nc(C(F)(F)C(F)(F)F)c(C(F)(F)F)c1-n1cc(-c2cnc(Cl)c(C(=O)NC3(C#N)CC3)c2)nn1 [Ia-1]
efficacy (ticks dead or moribund) ([1]; application rate 100 g/ha): 100% | efficacy (laying of fertile eggs) [2]: 100% | efficacy (beetle larvae killed) [3]: 100% | efficacy (laying of fertile eggs) [4]: 100% | efficacy (kill of fleas) [5]: 100% | efficacy (kill of ticks) [6]: 100% | efficacy (spider mites killed) [7]: 90%

Cn1nc(C(F)(F)C(F)(F)F)c(C(F)(F)F)c1-n1cc(-c2cnc(Cl)c(C(=O)NC3CC3)c2)nn1 [Ia-2, 2-Chloro-N-cyclopropyl-5-[1-[2-methyl-5-(1,1,2,2,2-pentafluoroethyl)-4-(trifluoromethyl)pyrazol-3-yl]triazol-4-yl]pyridine-3-carboxamide]
efficacy (kill of flies) [8]: 100% | efficacy (aphids killed) [9]: 90% | efficacy (ticks dead or moribund) ([1]; application rate 100 g/ha): 100% | efficacy (kill of larvae) [10]: 100% | efficacy (laying of fertile eggs) [2]: 100% | efficacy (beetle larvae killed) [3]: 100% | efficacy (laying of fertile eggs) [4]: 100% | efficacy (kill of fleas) [5]: 100% | efficacy (kill of ticks) [6]: 100% | efficacy (spider mites killed) [7]: 100% | efficacy (caterpillars killed) [11]: 100%

Cc1ncc(-c2cn(-c3c(C(F)(F)F)c(C(F)(F)C(F)(F)F)nn3C)nn2)cc1C(=O)NC1(C#N)CC1 [Ia-3]
efficacy (kill of flies) [8]: 80% | efficacy (aphids killed) [9]: 100% | efficacy (ticks dead or moribund) ([1]; application rate 100 g/ha): 100% | efficacy (fleas dead or moribund) [12]: 100% | efficacy (kill of larvae) [10]: 95% | efficacy (laying of fertile eggs) [2]: 100% | efficacy (beetle larvae killed) [3]: 100% | efficacy (kill of fleas) [5]: 100% | efficacy (spider mites killed) [7]: 100%

Cc1ncc(-c2cn(-c3c(C(F)(F)F)c(C(F)(F)C(F)(F)F)nn3C)nn2)cc1C(=O)NC1CC1 [Ia-4]
efficacy (kill of flies) [8]: 100% | efficacy (aphids killed) [9]: 90% | efficacy (ticks dead or moribund) ([1]; application rate 100 g/ha): 100% | efficacy (fleas dead or moribund) [12]: 100% | efficacy (kill of larvae) [10]: 100% | efficacy (laying of fertile eggs) [2]: 100% | efficacy (beetle larvae killed) [3]: 100% | efficacy (laying of fertile eggs) [4]: 100% | efficacy (kill of fleas) [5]: 100% | efficacy (kill of ticks) [6]: 100% | nematicidal efficacy (formation of galls) [13]: 90% | efficacy (spider mites killed) [7]: 100% | efficacy (caterpillars killed) [11]: 100%

COc1ncc(-c2cn(-c3c(C(F)(F)F)c(C(F)(F)C(F)(F)F)nn3C)nn2)cc1C(=O)NC1(C#N)CC1 [Ia-5]
efficacy (kill of flies) [8]: 100% | efficacy (ticks dead or moribund) ([1]; application rate 100 g/ha): 100% | efficacy (kill of larvae) [10]: 100% | efficacy (laying of fertile eggs) [2]: 100% | efficacy (beetle larvae killed) [3]: 100% | efficacy (kill of fleas) [5]: 100% | efficacy (caterpillars killed) [11]: 100%

COc1ncc(-c2cn(-c3c(C(F)(F)F)c(C(F)(F)C(F)(F)F)nn3C)nn2)cc1C(=O)NC1CC1 [Ia-6]
efficacy (kill of flies) [8]: 100% | efficacy (ticks dead or moribund) ([1]; application rate 20 g/ha): 80% | efficacy (kill of larvae) [10]: 100% | efficacy (laying of fertile eggs) [2]: 100% | efficacy (beetle larvae killed) [3]: 100% | efficacy (kill of fleas) [5]: 100%
